Results on 40 compounds are retold here after patent US9453014B2, “Cyclic amide derivatives as inhibitors of 11-β-hydroxysteroid dehydrogenase and uses thereof” (CONNEXIOS LIFE SCIENCES PVT. LTD., priority 2011, dated 2016).

For the test, the target named is T1, human full length HSD11 β 1 (Homo sapiens, UniProt P28845).
T1 construct: transient expression of human full length HSD11 β 1 expression vector; host or cells: CHO cells (transient transfection)
Put plainly: In Vitro HSD11β1 Inhibition Assay. The class given is cell-based. The conditions noted are these: CHO cells transiently expressing human HSD11β1; 200 nM cortisone+500 uM NADPH overnight; cortisone to cortisol by LC/MS-MS; read-out: 11βHSD1 (IC50). Summed up: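 CHO cells transiently transfected with human full-length HSD11β1 were re-seeded after 24 h and, 24 h later, incubated overnight with 200 nM cortisone plus 500 uM NADPH and inhibitor. Cortisone-to-cortisol conversion was measured by LC/MS-MS. IC50 from an 8-point log concentration–inhibition curve.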

T1 sequence (P28845 whole entry): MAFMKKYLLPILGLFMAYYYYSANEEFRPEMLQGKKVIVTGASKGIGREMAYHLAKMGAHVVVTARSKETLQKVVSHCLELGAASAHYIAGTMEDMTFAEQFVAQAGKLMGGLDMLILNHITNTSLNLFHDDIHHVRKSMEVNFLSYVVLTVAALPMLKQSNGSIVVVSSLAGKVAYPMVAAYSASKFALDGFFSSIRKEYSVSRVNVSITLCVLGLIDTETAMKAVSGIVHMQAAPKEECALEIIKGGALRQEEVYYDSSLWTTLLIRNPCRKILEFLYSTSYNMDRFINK

As a reminder, the IC50 is the point on the concentration scale where inhibition reaches its midpoint. On to `CC(CC(=O)N1CCCC2C(C(=O)O)CCCC21)c1c[nH]c2cccc(-c3ccc(F)cc3)c12` (stereo not shown) [Compound 254, 1-{3-[4-(4-fluorophenyl)-1H-indol-3-yl]butanoyl}decahydroquinoline-5-carboxylic acid], for which the IC50 was greater than 250 nM. Under `CC(CC(=O)N1CCCC2C(C(=O)O)CCCC21)c1c[nH]c2cccc(-c3ccccc3F)c12` (stereo not shown) [Compound 257, 1-{3-[4-(2-fluorophenyl)-1H-indol-3-yl]butanoyl}decahydroquinoline-5-carboxylic acid] stands 100 to 150 nM. With `CC(CC(=O)N1CCCC2C(C(=O)O)CCCC21)c1c(C#N)n(C)c2cccc(C3CC3)c12` (stereo not shown) [Compound 258, 1-[3-(2-cyano-4-cyclopropyl-1-methyl-1H-indol-3-yl)butanoyl]decahydroquinoline-5-carboxylic acid] the figure was greater than 250 nM; with `CC(CC(=O)N1CCCC2C(C(=O)O)CCCC21)c1c[nH]c2cccc(-c3cccc(F)c3)c12` (stereo not shown) [Compound 259, 1-{3-[4-(3-fluorophenyl)-1H-indol-3-yl]butanoyl}decahydroquinoline-5-carboxylic acid], 150 to 200 nM. With `O=C(O)C1CCCC2C1CCCN2C(=O)CSc1c[nH]c2cccc(C3CC3)c12` (stereo not shown) [Compound 260, 1-{[(4-cyclopropyl-1H-indol-3-yl)sulfanyl]acetyl}decahydroquinoline-5-carboxylic acid], the IC50 is greater than 250 nM. With `CC(CC(=O)N1CCCC2C(C(=O)O)CCCC21)c1cn(C2CC2)c2cccc(Cl)c12` (stereo not shown) [Compound 261, 1-[3-(4-chloro-1-cyclopropyl-1H-indol-3-yl)butanoyl]decahydroquinoline-5-carboxylic acid] the figure was 200 to 250 nM.

Regarding `CC(CC(=O)N1CCCC2C(C(=O)O)CCCC21)c1c[nH]c2cccc(-c3ncccc3F)c12` (stereo not shown) [Compound 262, 1-{3-[4-(3-fluoropyridin-2-yl)-1H-indol-3-yl]butanoyl}decahydroquinoline-5-carboxylic acid], the IC50 is greater than 250 nM.

Turning to `CC(CC(=O)N1CCCC2C(C(=O)O)CCCC21)c1cn(C)c2cccc(-c3ccc(F)o3)c12` (stereo not shown) [Compound 263, 1-{3-[4-(5-fluorofuran-2-yl)-1-methyl-1H-indol-3-yl]butanoyl}decahydroquinoline-5-carboxylic acid], the IC50 was less than 100 nM. Turning to `COc1cccc2[nH]cc(C(C)CC(=O)N3CCCC4C(C(=O)O)CCCC43)c12` (stereo not shown) [Compound 264, 1-[3-(4-methoxy-1H-indol-3-yl)butanoyl]decahydroquinoline-5-carboxylic acid], the IC50 was greater than 250 nM.

`O=C(O)C1CCCC2C1CCCN2C(=O)CC(O)(c1c[nH]c2ccccc12)C(F)(F)F` (stereo not shown) [Compound 265, 1-[4,4,4-trifluoro-3-hydroxy-3-(1H-Indol-3-yl)butanoyl]-decahydroquinoline-5-carboxylic acid]: the IC50 was greater than 250 nM.

Consider `CCn1cc(C(C)CC(=O)N2CCCC3C(C(=O)O)CCCC32)c2c(Cl)cccc21` (stereo not shown) [Compound 266, 1-[3-(4-chloro-1-ethyl-1H-indol-3-yl)butanoyl]decahydroquinoline-5-carboxylic acid], for which the IC50 is greater than 250 nM. Turning to `CC(C(=O)N1CCCC2C(C(=O)O)CCCC21)c1c[nH]c2cccc(C3CC3)c12` (stereo not shown) [Compound 267, 1-(2-(4-cyclopropyl-1H-indol-3-yl)propanoyl)decahydroquinoline-5-carboxylic acid], the IC50 was greater than 250 nM.

For the compound `Cn1nc(CCC(=O)N2CCCC3C(C(=O)O)CCCC32)c2c(C3CC3)cccc21` (stereo not shown) [Compound 268, 1-(3-(4-cyclopropyl-1-methyl-1H-indazol-3-yl)propanoyl) decahydroquinoline-5-carboxylic acid], the IC50 was greater than 250 nM.

Take `CC(C)(Sc1nc2ccccc2s1)C(=O)N1CCCC2CCCCC21` (stereo not shown) [Example 74, 2-(1,3-benzothiazol-2-ylsulfanyl)-2-methyl-1-(octahydroquinolin-1(2H)-yl)propan-1-one]: the IC50 is greater than 250 nM.

On to `O=C(CCc1nc2ccccc2s1)N1CCCC2CCCCC21` (stereo not shown) [Example 75, 3-(1,3-benzothiazol-2-yl)-1-(octahydroquinolin-1(2H)-yl)propan-1-one], for which the half-inhibitory concentration (IC50) is less than 100 nM. With `CC1CCC2CCCCC2N1C(=O)CCc1nc2ccccc2s1` (stereo not shown) [Example 76, 3-(1,3-benzothiazol-2-yl)-1-(2-methyloctahydroquinolin-1 (2H)-yl)propan-1-one], the IC50 is greater than 250 nM.

Consider `COC(=O)C1CCN(C(=O)CCc2nc3ccccc3s2)C2CCCCC12` (stereo not shown) [Example 77, methyl 1-[3-(1,3-benzothiazol-2-yl)propanoyl]decahydroquinoline-4-carboxylate], for which the IC50 was greater than 250 nM.

In the case of `CC12CCCCC1N(C(=O)CCc1nc3ccccc3s1)CCC2` (stereo not shown) [Example 78, 3-(1,3-benzothiazol-2-yl)-1-(4a-methyloctahydroquinolin-1(2H)-yl)propan-1-one], the IC50 was less than 100 nM. Under `O=C(CCc1nc2ccccc2s1)N1CCOC2CCCCC21` (stereo not shown) [Example 80, 3-(1,3-benzothiazol-2-yl)-1-(octahydro-4H-1,4-benzoxazin-4-yl)propan-1-one] stands greater than 250 nM; under `O=C(CCc1nc2ccccc2s1)N1CCC2CCCCC21` (stereo not shown) [Example 81, 3-(1,3-benzothiazol-2-yl)-1-(octahydro-1H-indol-1-yl)propan-1-one], less than 100 nM; under `O=C(CCc1nc2ccccc2s1)N1CC2CCCCC2C1` (stereo not shown) [Example 82, 3-(1,3-benzothiazol-2-yl)-1-(octahydro-2H-isoindol-2-yl)propan-1-one], greater than 250 nM.

Regarding `CC1CC2CCCCC2N1C(=O)CCc1nc2ccccc2s1` (stereo not shown) [Example 83, 3-(1,3-benzothiazol-2-yl)-1-(2-methyloctahydro-1H-indol-1-yl)propan-1-one], the half-inhibitory concentration (IC50) is greater than 250 nM. As to `O=C(CCc1c[nH]c2ncccc12)N1CCCC2CCCCC21` (stereo not shown) [Example 84, 1-(octahydroquinolin-1(2H)-yl)-3-(1H-pyrrolo[2,3-b]pyridin-3-yl)propan-1-one], the IC50 is less than 100 nM. Under `O=C(CCc1cn(S(=O)(=O)c2ccccc2)c2ncccc12)N1CCCC2CCCCC21` (stereo not shown) [Example 85, 1-(octahydroquinolin-1(2H)-yl)-3-[1-(phenylsulfonyl)-1H-pyrrolo[2,3-b]pyridin-3-yl]propan-1-one] stands greater than 250 nM.

Turning to `CC1CCC2CCCCC2N1C(=O)CCc1c[nH]c2ncccc12` (stereo not shown) [Example 86, 1-(2-methyloctahydroquinolin-1(2H)-yl)-3-(1H-pyrrolo[2,3-b]pyridin-3-yl)propan-1-one], the IC50 is less than 100 nM.

`Cn1cc(CCC(=O)N2CCCC3CCCCC32)c2cccnc21` (stereo not shown) [Example 87, 3-(1-methyl-1H-pyrrolo[2,3-b]pyridin-3-yl)-1-(octahydroquinolin-1 (2H)-yl)propan-1-one]: the IC50 is less than 100 nM. With `O=C(CCc1n[nH]c2ccccc12)N1CCCC2CCCCC21` (stereo not shown) [Example 88, 3-(1H-indazol-3-yl)-1-(octahydroquinolin-1(2H)-yl)propan-1-one] the figure was greater than 250 nM; with `Cn1nc(CCC(=O)N2CCCC3CCCCC32)c2ccccc21` (stereo not shown) [Example 89, 3-(1-methyl-1H-indazol-3-yl)-1-(octahydroquinolin-1(2H)-yl)propan-1-one], 150 to 200 nM; with `CC12CCCCC1N(C(=O)CCn1nnc3ccccc31)CCC2` (stereo not shown) [Example 90, 3-(1H-benzotriazol-1-yl)-1-(4a-methyloctahydroquinolin-1(2H)-yl)propan-1-one], 100 to 150 nM. With `O=C(CCn1nnc2ccccc21)N1CCOC2CCCCC21` (stereo not shown) [Example 91, 3-(1H-benzotriazol-1-yl)-1-(octahydro-4H-1,4-benzoxazin-4-yl)propan-1-one] the figure was greater than 250 nM; with `CC(CC(=O)N1C(C)CCC2CCCCC21)c1c[nH]c2ccc(F)cc12` (stereo not shown) [Example 92, 3-(5-fluoro-1H-indol-3-yl)-1-(2-methyloctahydroquinolin-1(2H)-yl)butan-1-one], 100 to 150 nM. Under `O=C(CCc1c[nH]c2ccccc12)N1CCCC2CCCCC21` (stereo not shown) [Example 93, 3-(1H-indol-3-yl)-1-(octahydroquinolin-1(2H)-yl)propan-1-one] stands less than 100 nM; under `CC(CC(=O)N1CCCC2CCCCC21)c1cn(C)c2ccccc12` (stereo not shown) [Example 94, 3-(1-methyl-1H-indol-3-yl)-1-(octahydroquinolin-1(2H)-yl)butan-1-one], 150 to 200 nM. `CC(C)C(CC(=O)N1CCCC2CCCCC21)c1c[nH]c2ccccc12` (stereo not shown) [Example 95, 3-(1H-indol-3-yl)-4-methyl-1-(octahydroquinolin-1(2H)-yl)pentan-1-one]: the IC50 is less than 100 nM. Regarding `CC(=O)NC(Cc1c[nH]c2ccccc12)C(=O)N1CCCC2CCCCC21` (stereo not shown) [Example 96, N-[3-(1H-indol-3-yl)-1-(octahydroquinolin-1(2H)-yl)-1-oxopropan-2-yl]acetamide], the 50% inhibitory concentration (IC50) is greater than 250 nM.

On to `Cn1cc(C2CC2C(=O)N2CCCC3CCCCC32)c2ccccc21` (stereo not shown) [Example 97, [2-(1-methyl-1H-indol-3-yl)cyclopropyl](octahydroquinolin-1(2H)-yl)methanone], for which the IC50 lay within 150 to 200 nM. For the compound `N#CC(Cc1c[nH]c2ccccc12)C(=O)N1CCCC2CCCCC21` (stereo not shown) [Example 98, 2-(1H-indol-3-ylmethyl)-3-(octahydroquinolin-1(2H)-yl)-3-oxopropanenitrile], the IC50 is greater than 250 nM. For `O=C(COc1c[nH]c2ccccc12)N1CCCC2CCCCC21` (stereo not shown) [Example 99, 2-(1H-indol-3-yloxy)-1-(octahydroquinolin-1(2H)-yl)ethanone], the IC50 is greater than 250 nM. For the compound `CC(Oc1cn(C)c2ccccc12)C(=O)N1CCCC2CCCCC21` (stereo not shown) [Example 100, 2-[(1-methyl-1H-indol-3-yl)oxy]-1-(octahydroquinolin-1(2H)-yl)propan-1-one], the IC50 was greater than 250 nM. Under `COC(=O)C1CCN(C(=O)CC(c2c[nH]c3ccccc23)C(C)C)C2CCCCC12` (stereo not shown) [Example 101, methyl 1-[3-(1H-indol-3-yl)-4-methylpentanoyl]decahydroquinoline-4-carboxylate] stands greater than 250 nM.
